Several values for one entry are separate records, joined by “and”; a condition that tells them apart may be missing. Equal entries are not always repeated.
Columns and labels:
LLC OE NAMPT cells = test: Cell viability 72 h, LLC OE NAMPT (Fig 4C); assay type: cell-based, mouse
Method: In vitro cell viability was determined using a Cell Counting Kit-8 (MCE) assay. Cells (5 × 10^3/well) were seeded in 96-well culture plates. After 24 h, they were incubated with various concentrations of the test compounds for 48–72 h at 37 °C in a 5% CO2 incubator. Next, 10% of the CCK-8 solution was added to each well, and the plates were incubated for an additional 4 h at 37 °C. The optical density of each well was measured at 450 nm using a multimode plate reader (Molecular Devices, San Jose, CA, USA). Cells (5 × 10^3/well) were seeded into a 96-well plate and cultured at 37 °C in a 5% CO2 incubator. […] At the final time point, 10 μl MTT solution (5 mg/ml, Sigma, Burlington, MA, USA) was added to each well and incubated for an additional 4 h at 37 °C in a 5% CO2 incubator. Then,100 μl of DMSO was added to each well and mixed thoroughly. Optical density was measured at 492 nm using a microplate reader (Molecular Devices, San Jose, CA, USA).

NAMPT = NAMPT (Homo sapiens, UniProt P43490); test: In vitro NAMPT activity assay (Abcam kit); assay type: biochemical; parameters: purchased Abcam ab221819
[1] = test system: LLC Vector cells co-cultured with T cells; test: T cell-mediated tumor cell killing assay, LLC Vector; assay type: cell-based; conditions: Mus musculus, 100 nM, read-out: inhibition rate (T cell-mediated killing)
Method: To acquire activated T cells, human peripheral blood mononuclear cells (PBMC; LTS1077, Yanjin Biological) were cultured in CTSTM AIIM VTM SFM (A3021002; Gibco) with ImmunoCult Human CD3/CD28/CD2 T-cell activator (25 µL/mL; […] Technologies, Cat#10970) for 48 h according to the manufacturer’s protocol. The experiments were performed using mouse anti-CD3 antibody (1 µg/mL; Thermo Scientific, 16-0032-82) and anti-CD28 antibody(5 µg/mL; Thermo Scientific, 16-0281-82). Cancer cells were allowed to adhere to the plates overnight and then incubated for 48 h with activated T cells in the presence or absence of DX ([…]). Different proportions of cancer cells and activated T cells were utilized according to the purpose of each experiment. The T-cell proliferation assay was 1:3; the T-cell killing assay was 1:10; T cells and cell debris were removed by PBS washing, and the living cancer cells were then quantified by a spectrometer at OD (570 nm) followed by crystal violet staining. page 12: Fig 3: […] expression patterns. […] Data was obtained from the TCGA database. (B) T cell-mediated tumor cell killing assay. T cells were co-cultured with LLC Vector, […] CQ-85, or BMS202. […] stained by crystal violet. The relative added value of activated T cells is shown below. Data are presented as mean ± SEM; *P < 0.05, **P < 0.01, ***P < 0.001, compared with control. n.s., not significant. […]

LLC cells [2] = test: Clonogenic assay, LLC; assay type: cell-based, mouse; conditions: 9 days
Method: Cells (3 × 10^2/well) were plated in a six-well plate and the culture medium was replaced every 2 days. After culturing for 7–10 d, the cells were fixed with 4% paraformaldehyde for 15 min, stained with 0.1% crystal violet for 30 min, and imaged and counted.

LLC cells [3] = test: MTT assay 48 h, LLC; assay type: cell-based, mouse
Method: (§1) Cells (5 × 10^3/well) were seeded into a 96-well plate and cultured at 37 °C in a 5% CO2 incubator. […] At the final time point, 10 μl MTT solution (5 mg/ml, Sigma, Burlington, MA, USA) was added to each well and incubated for an additional 4 h at 37 °C in a 5% CO2 incubator. Then,100 μl of DMSO was added to each well and mixed thoroughly. Optical density was measured at 492 nm using a microplate reader (Molecular Devices, San Jose, CA, USA).

[4] = test system: LLC sh NAMPT cells co-cultured with T cells; test: T cell killing assay (colony formation), LLC sh NAMPT; assay type: cell-based; conditions: Mus musculus, 72 h, 100 nM, three days, read-out: inhibition rate of colony formation number
Method: To acquire activated T cells, human peripheral blood mononuclear cells (PBMC; LTS1077, Yanjin Biological) were cultured in CTSTM AIIM VTM SFM (A3021002; Gibco) with ImmunoCult Human CD3/CD28/CD2 T-cell activator (25 μL/mL; […] Technologies, Cat#10970) for 48 h according to the manufacturer's protocol. The experiments were performed using mouse anti-CD3 antibody (1 μg/mL; Thermo Scientific, 16-0032-82) and anti-CD28 antibody(5 μg/mL; Thermo Scientific, 16-0281-82). […] Different proportions of cancer cells and activated T cells were utilized according to the purpose of each experiment. The T-cell proliferation assay was 1:3; the T-cell killing assay was 1:10; T cells and cell debris were removed by PBS washing, and the living cancer cells were then quantified by a spectrometer at OD (570 nm) followed by crystal violet staining. page 28: Fig 8: Effects of LZFPN-90 and NMN on tumor immune microenvironment. […] (C) T cells were co-cultured with LLC cells, and treated with LZFPN-90 (100 nM), and NMN (1 mM) to detect the cell proliferation by T cell killing assay. Data are presented as mean ± SEM; *P < 0.05, **P < 0.01, ***P < 0.001 compared with control. n.s., not significant. (1 picture or pasted object on this page, not shown here)

[5] = test system: NAD+ content of LLC OE NAMPT/PD-L1 tumor tissue; test: NAD+ in tumor tissue, LLC OE NAMPT/PD-L1 mouse model; assay type: in vivo; conditions: 20 mg/kg
MKN74 cells = test: MTT assay 48 h, MKN74; assay type: cell-based, human
Method: as §1

MDA-MB-231 cells = test: MTT assay 48 h, MDA-MB-231; assay type: cell-based, human
Method: as §1

HCT-116 cells = test: Apoptosis assay (Annexin V/PI), HCT-116; assay type: cell-based, human; conditions: HCT116
Method: The cells are treated with the compounds. After 48–72 h, the cells were harvested and washed twice with cold PBS. The cells were then stained with Annexin V/propidium iodide (PI) (BD Biosciences) and examined using a NovoCyte Flow Cytometer (ACEA Biosciences). Data were analyzed using NovoExpress software (ACEA Biosciences).

NAMPT, sequence (P43490 whole entry, species assumed): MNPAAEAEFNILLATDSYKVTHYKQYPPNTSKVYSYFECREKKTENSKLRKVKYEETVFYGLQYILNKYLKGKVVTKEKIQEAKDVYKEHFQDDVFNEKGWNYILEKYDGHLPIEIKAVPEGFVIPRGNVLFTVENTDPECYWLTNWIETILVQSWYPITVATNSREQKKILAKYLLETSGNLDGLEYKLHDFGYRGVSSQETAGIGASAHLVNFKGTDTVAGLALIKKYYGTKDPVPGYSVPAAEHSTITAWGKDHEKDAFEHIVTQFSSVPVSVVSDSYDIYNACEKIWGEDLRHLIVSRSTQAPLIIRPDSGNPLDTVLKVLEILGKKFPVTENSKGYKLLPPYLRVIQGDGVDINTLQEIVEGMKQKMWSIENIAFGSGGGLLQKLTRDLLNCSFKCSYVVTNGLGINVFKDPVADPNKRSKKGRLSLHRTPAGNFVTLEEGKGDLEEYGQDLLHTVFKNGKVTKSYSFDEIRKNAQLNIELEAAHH

## CCN(CC)CCCOc1cccc(-c2cccc3c2CCN3C(=O)c2ncc(CNC(=NC#N)Nc3ccncc3)s2)c1 [LZFPN-90]
LLC OE NAMPT cells; head LLC OE NAMPT/PD-L1 (legend: LLC OE NAMPT), LZ90 0.25 (nM), 0 = 100
  Relative viability: 77.2963 and 85.357 and 93.8244
LLC OE NAMPT cells; head LLC OE NAMPT/PD-L1, LZ90 1
  Relative viability: 81.6379 and 75.0704 and 92.5933
LLC OE NAMPT cells; head LLC OE NAMPT/PD-L1, LZ90 4
  Relative viability: 70.2024 and 73.3725 and 88.779
LLC OE NAMPT cells; head LLC OE NAMPT/PD-L1, LZ90 16
  Relative viability: 63.5687 and 62.4896 and 67.6771
LLC OE NAMPT cells; head LLC OE NAMPT/PD-L1, LZ90 64
  Relative viability: 57.8886 and 54.3565 and 56.8184
LLC OE NAMPT cells; head LLC OE NAMPT/PD-L1, LZ90 256
  Relative viability: 39.2756 and 40.3926 and 41.8466
NAMPT
  IC50: 28 nM
NAMPT; concluded from NMN reversal of NAD+ reduction
  mode of NAMPT inhibition: NAMPT competitive inhibitor
[1]
  inhibition at 0.1 µM: ~40%
LLC cells [2]; LZ90-H (80 nM)
  Colony formation relative to Ctrl: 0.24
LLC cells [2]; LZ90-L (20 nM), Ctrl = 1
  Colony formation relative to Ctrl: 0.68
LLC cells [2]; LZ90-M (40 nM)
  Colony formation relative to Ctrl: 0.53
LLC cells [3]; LLC
  Relative inhibition (敏感性): 0.15
LLC cells [3]; MTT, 64 nM
  effect on relative viability of LLC cells: basically had no effect
[4]
  inhibition at 0.1 µM: 26.8%
[5]
  effect on NAD+ content in tumor tissues: reduced NAD^+ content in tumor tissues
[5]; tumor tissue
  NAD+ in 20 mg tissue: 221.603 and 139.494 and 234.768
MKN74 cells
  Relative inhibition (敏感性): 0.79
MDA-MB-231 cells
  Relative inhibition (敏感性): 0.09
HCT-116 cells; LZ90 15 nM
  Apoptotic cells (sum of both Annexin-positive quadrants): 9.8 and 11.59 and 10.81
HCT-116 cells; LZ90 60 nM
  Apoptotic cells (sum of both Annexin-positive quadrants): 14.57 and 17.94 and 17.19
HCT-116 cells; LZ90 240 nM
  Apoptotic cells (sum of both Annexin-positive quadrants): 13.96 and 15.34 and 15.58

Reference: article PMC11018795, “The regulatory relationship between NAMPT and PD-L1 in cancer and identification of a dual-targeting inhibitor” (EMBO Molecular Medicine, 2024)
